The source of these data is paper PMC9463526 (Journal of Pharmaceutical Analysis, 2022).

Read-outs that look alike come from different tables or passages of the source. Some results are limits rather than exact numbers.

Data set [1] in a line: Pilot pharmacokinetic studies in mice (blood-brain barrier). The format is in vivo.
Data set [2] can be described thus: Equilibrium dialysis, fraction unbound in patient brain tumor tissue. The format is in vitro ADME. Particulars: human, five patients, 16 h equilibrium dialysis. On the procedure: Equilibrium dialysis was employed to measure the fraction unbound of analytes in plasma, brain, and brain tumor tissue homogenates using 96-well DispoEquilibrium Dialyzer plates with a 10 kDa cut-off regenerated cellulose membrane. Dialysis was performed using 180 μL of human plasma or tissue homogenate against an equal volume of PBS (pH 7.4) in a dual-plate rotator (Harvard Apparatus, Holliston, MA, USA). Equilibrium time was initially optimized by analyzing samples after 2, 4, 6, 8, 16, and 24 h of dialysis at concentrations of 20 and 200 nM in human plasma and brain homogenate. The dialysates were collected and processed as described in Sections 2.3.2 and 2.3.3. The recovery of analytes was calculated as the ratio of analyte concentration after dialysis (sum of concentrations found in PBS and matrix fractions) to the total concentration to ensure the reliability and reproducibility of the assay. The experiments were repeated at least three times, and each sample in triplicate and average fraction unbound values were determined.
The fraction unbound in plasma (fu, plasma) and tissue homogenate (fu, hom) was evaluated as the analyte concentration ratio of post-dialysis PBS (cu) to post-dialysis plasma (cp, Eq. (1)) or homogenate (chom, Eq. (2)).(1) fu,plasma =cu/cp (2) fu,hom =cu/chom
The fraction unbound in the actual tissue (fu, tissue) was obtained by incorporating the unbound fraction in the tissue homogenate (fu, hom) and the dilution factor (Df) into Eq. (3).(3) fu,tissue = fu,hom/[Df - (Df - 1)fu,hom]
(§1) Unbound drug levels in the actual plasma and brain tumor tissue were measured using dialysis for 16 h to reach equilibrium. The mean of fraction unbound values determined in five patient samples was calculated.
(§2) The validated bioanalytical method was employed to investigate analytes pharmacokinetics in the plasma, brain tumor, and CSF in GBM patients (ClinicalTrials.gov identifier: NCT04391595). The protocol was reviewed and approved by the Institutional Review Board of the Barrow Neurological Institute, St. Joseph's Hospital and Medical Center (Phoenix, AZ, USA). All patients enrolled in the trial provided written informed consent. […] Blood, CSF, and GBM tissue (including gadolinium-contrast enhancing and non-enhancing regions) samples were obtained intra-operatively from each patient on the […] on the planned operation day. Blood was centrifuged at 4 °C and 3,000 r/min for 10 min; plasma was subsequently collected. Brain tumors were resected 7–9 h after the last dose was administered. Once resected, the tissue samples were rinsed with PBS, paper dried, and freshly frozen in liquid nitrogen. The samples were then stored at −80 °C in a freezer for later analysis.

Details of data set [3]: method as in investigational brochures. Particulars: ref investigational brochures; cited from earlier work.
A short description of data set [4]: Tumor-to-plasma partition coefficients (Kp, Kp,uu) in GBM patients. Type of data set: in vivo, human. The conditions noted are these: for Unbound tumor-to-plasma partition coefficient (Kp,uu), fold lower than abemaciclib: both GBM regions, five patients. The procedure:
Blank brain and clinical brain tumor tissue homogenates were prepared at 1:9 (m/V) ratio with PBS. The samples were homogenized at a speed of 6.00 m/s for 40 s for three cycles using a Bead Ruptor Elite homogenizer (Omni International, Kennesaw, GA, USA). Plasma was used as a surrogate matrix when preparing calibration curves for brain and brain tumor homogenates and CSF as well as for the PBS fraction after sample dialysis. To minimize matrix differences, all plasma samples were spiked with PBS, while all non-plasma samples were spiked with plasma. Extraction of the analyte and IS was facilitated by protein precipitation using methanol-containing IS precipitation solution. Samples (70 μL) spiked with PBS or plasma were precipitated using 400 μL of IS precipitation solution. After centrifugation at 12,000 r/min for 10 min at 4 °C, the supernatant was transferred for LC-MS/MS analysis.
as §1
as §2, with “The samples were then stored at −80 °C in a freezer for later analysis.” left out

Setting [5] is: pH 7.4, gadolinium contrast enhancing GBM region, read-out: Fraction unbound (fu), GBM (E).
[6] abbreviates: pH 7.4, gadolinium contrast non-enhancing GBM region, read-out: Fraction unbound (fu), GBM (NE).

For the compound `Cn1nccc1Nc1nccc(-c2cc3c(s2)C(C)(C)N(CCN2CCOCC2)C3=O)n1` [LY3214996], the “Crossing of the blood-brain barrier” value in data set [1] is listed as “may cross the blood-brain barrier”. Also, the fraction unbound at 16 h in data set [2] (setting [5]) was 0.109; in data set [2] (setting [6]) it was 0.06. For the same compound, the “pKa (strongest basic)” value in data set [3] is 6.21.
For `Cc1nc2c(F)cc(-c3nc(Nc4ccc(CN5CCNCC5)cn4)ncc3F)cc2n1C(C)C` [M2], in data set [4], the “Unbound tumor-to-plasma partition coefficient (Kp,uu), fold lower than abemaciclib” value is reported as “at least 3 fold”. In addition, the “Total tumor-to-plasma partition coefficient (Kp), fold higher than M20” value in data set [4] (gadolinium-contrast enhancing and non-enhancing GBM regions) is on record as over 2 fold. The fraction unbound at 16 h in data set [2] (setting [5]) worked out at 0.009; in data set [2] (setting [6]) it was 0.006.
As for `CCN1CCN(Cc2ccc(Nc3ncc(F)c(-c4cc(F)c5nc(CO)n(C(C)C)c5c4)n3)nc2)CC1` [M20], in data set [4], the “Unbound tumor-to-plasma partition coefficient (Kp,uu), fold lower than abemaciclib” value is listed as “at least 3 fold”. In addition, the fraction unbound at 16 h turned out to be 0.022 in data set [2] (setting [5]) and 0.017 in data set [2] (setting [6]).
